Measured values published in PubChem BioAssay (NCI).
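Step 1: Grow cells in 96-well plates. Step 2: Expose to compound for 48 hours at 5 concentrations. Step 3: Interpolate endpoints linearly; if unreached, use highest concentration. Abbreviation: GI50, concentration required for 50% inhibition of growth. TGI denotes the concentration required for complete inhibition of growth.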

Key:
Assay in all cases: inhibition of tumour cell growth, NCI panel, 48 h
[1] = tested on: MDA-N
[2] = tested on: DMS 114 small cell lung
[3] = tested on: RXF-631 renal
[4] = tested on: SNB-78 CNS
[5] = tested on: M19-MEL melanoma
[6] = tested on: DMS 273 small cell lung
[7] = tested on: KM20L2 colon
[8] = tested on: LXFL 529 NSCLC
[9] = tested on: XF 498 CNS

Row | SMILES | TGI [1] | TGI [2] | TGI [3] | TGI [4] | TGI [5] | TGI [6] | TGI [7] | TGI [8] | TGI [9] | also measured
1 | COC(=O)c1ccc([N+](=O)[O-])c(O)c1 | > 100 µM | – | – | – | – | – | – | – | – | –
2 | COc1cccc(NC(=O)CC(=O)N2NC(C)C(N=Nc3cccc(C(=O)O)c3)C2=O)c1 (centres undefined) | – | > 100 µM | > 100 µM | > 100 µM | > 100 µM | > 100 µM | > 100 µM | > 100 µM | – | –
3 | CC(=O)OC1CCC2(C)C(=CCC3C2CCC2(C)C(C(C)C(=O)O)CCC32)C1 (centres undefined) | > 100 µM | – | – | – | – | – | – | – | – | –
4 | O=S1(=O)CS(=O)(=O)OCCCO1 | > 100 µM | – | – | – | – | – | – | – | – | –
5 | CCC1CC(=O)N(SCC(N)C(=O)O)C1=O (centres undefined) | > 100 µM | – | – | – | – | – | – | – | – | –
6 | N#CCC(=O)N/N=C1\C(=O)N(c2ccc(Cl)cc2)C(=O)C(=O)C1c1nc2ccccc2o1 (centres undefined) | – | > 100 µM | > 100 µM | > 100 µM | > 100 µM | > 100 µM | > 100 µM | > 100 µM | – | –
7 | C[C@H]1CC(=O)C2=CCCC3(SCCCS3)[C@@H]2[C@H]1CO | – | > 100 µM | > 100 µM | – | > 100 µM | > 100 µM | – | > 100 µM | > 100 µM | –
8 | O=C1/C(=C/c2ccccc2)CCC/C1=C\c1ccccc1 | 7.71 µM | 24.3 µM | 50.5 µM | > 87.9 µM | 6.98 µM | 21.5 µM | 22.2 µM | 15.8 µM | – | –
9 | COc1cc2cc[n+]3c4cc(OC)c(OC)cc4c(C)cc3c2cc1OC | – | > 100 µM | > 100 µM | > 100 µM | > 100 µM | > 100 µM | > 100 µM | > 100 µM | > 100 µM | –
10 | O=c1c2cc(Br)cc(Br)c2[nH]c(=S)n1-c1ccccc1 | – | > 100 µM | > 100 µM | > 100 µM | > 100 µM | > 100 µM | > 100 µM | – | 78.9 µM | –
11 | O=c1c2ccccc2c(=O)c2c1cc(Cl)c1[nH]c3c([nH]c12)c(Cl)cc1c(=O)c2ccccc2c(=O)c13 | – | > 100 µM | – | > 100 µM | > 100 µM | > 100 µM | > 100 µM | – | – | –
12 | C/C(=N/NC(=O)C(N)=O)C(CC(C(=O)Nc1ccccc1C)/C(C)=N\NC(=O)C(N)=O)C(=O)Nc1ccccc1C (centres undefined) | – | – | – | > 100 µM | > 100 µM | – | > 100 µM | > 100 µM | – | –
13 | O=C(O)CCC1(Br)CCCCC(Br)C1=O (centres undefined) | – | > 100 µM | – | > 100 µM | > 100 µM | > 100 µM | > 100 µM | > 100 µM | > 100 µM | –
14 | COc1cc([C@@H]2c3cc4c(cc3[C@H](O)[C@H]3COC(=O)[C@H]23)OCO4)cc(OC)c1OC | 0.5 µM | – | – | > 100 µM | – | – | – | > 100 µM | > 100 µM | –
15 | C=C1Oc2nc3ccccc3c(=O)n2C1(C)C | – | > 100 µM | – | > 100 µM | > 100 µM | > 100 µM | > 100 µM | > 100 µM | > 100 µM | –
16 | CC(=O)OC1C(CCl)OC(N=[N+]=[N-])C(OC(C)=O)C1OC(C)=O (centres undefined) | – | > 100 µM | > 100 µM | – | > 100 µM | > 100 µM | > 100 µM | – | > 100 µM | –
17 | CC[O-].Cc1ccc2cccc([O-])c2n1.Cc1ccc2cccc([O-])c2n1.Cc1ccc2cccc([O-])c2n1.[Ti+4] | – | > 59.3 µM | > 65.4 µM | > 100 µM | 27.7 µM | > 67.7 µM | > 100 µM | > 49.3 µM | 58.3 µM | GI50 [2]: 21.9 µM; GI50 [3]: 18.8 µM; GI50 [4]: 59.7 µM; GI50 [5]: 14 µM; GI50 [6]: > 33.3 µM; GI50 [7]: > 54.2 µM; GI50 [8]: 24.8 µM; GI50 [9]: 17.3 µM
18 | O=C(CCCc1ccccn1)c1ccccc1 | > 100 µM | – | – | – | – | – | – | – | – | –
19 | O=C(Nc1ccccc1Br)c1cccc([N+](=O)[O-])c1O | – | 18 µM | > 100 µM | > 84.8 µM | 12.9 µM | > 48.8 µM | 36.7 µM | 22.1 µM | – | –
20 | O=C(O)CCCCn1cnc2c(=S)nc[nH]c21 | > 100 µM | – | – | – | – | – | – | – | – | –

Row | SMILES | TGI [1] | TGI [2] | TGI [3] | TGI [4] | TGI [5] | TGI [6] | TGI [7] | TGI [8] | TGI [9] | also measured
21 | CC(C)(C)[Si](C)(C)O/N=C\c1ccc(O[Si](C)(C)C(C)(C)C)cc1 | – | 75.3 µM | 53.5 µM | > 100 µM | > 100 µM | > 100 µM | > 100 µM | > 100 µM | 83 µM | –
22 | CN1c2ccccc2S(=O)(=O)n2c(COc3ccc(Cl)cc3)nnc21 | > 100 µM | – | – | – | – | – | – | – | – | –
23 | N#CC(C#N)=CSc1ccccc1 | – | 43 µM | > 100 µM | – | – | 65.4 µM | > 100 µM | > 100 µM | > 100 µM | –
24 | CCOC(=O)C(=O)N=Nc1nc2c(O)c3ccccc3c(O)c2s1 | 3.2 µM | 3.39 µM | 39.9 µM | 8.48 µM | 1.27 µM | 9.2 µM | 32.1 µM | 3.3 µM | 4.46 µM | –
25 | O=C(O)C1CCCCN1C(=O)c1ccccc1 (centres undefined) | – | > 100 µM | > 100 µM | > 100 µM | > 100 µM | > 100 µM | > 100 µM | > 100 µM | > 100 µM | –
26 | O=C(NNC(=O)c1ccncc1)c1ccncc1 | > 100 µM | – | – | – | – | – | – | – | – | –
27 | NC(=O)C(NC=O)c1ccccc1 (centres undefined) | > 100 µM | – | – | – | – | – | – | – | – | –
28 | COc1ccc2c(=O)c3cc([N+](=O)[O-])ccc3n(C)c2c1 | > 100 µM | – | – | – | – | – | – | – | – | –
29 | Cc1cc(NS(=O)(=O)c2ccc(NC(=O)c3cccc4c(Nc5ccc(S(=O)(=O)Nc6cc(C)on6)cc5)c5ccccc5nc34)cc2)no1 | – | > 100 µM | – | > 100 µM | > 100 µM | > 100 µM | > 100 µM | 95.5 µM | 96.1 µM | –
30 | Cc1ccccc1N=Nc1c(O)[nH]c2ccccc12 | > 100 µM | – | – | – | – | – | – | – | – | –
31 | Cc1cc(C)cc(Sc2c([N+](=O)[O-])ncn2C)c1 | – | 34.4 µM | 51.3 µM | 58.9 µM | 84.1 µM | 25.8 µM | > 100 µM | 40.9 µM | 59.5 µM | –
32 | Cc1cc(C(=O)N2CCN(Cc3ccccc3)CC2)c(C)o1 | – | > 100 µM | – | > 100 µM | > 100 µM | – | > 100 µM | > 100 µM | > 100 µM | –
33 | CCN(CC)CCNC(=O)c1cccc2cc3ccccc3nc12 | – | 19.2 µM | 32.8 µM | 57 µM | 16.6 µM | 24.3 µM | – | – | – | –
34 | CCC[CH2][Sn]([CH2]CCC)([O]C(=O)c1nccnc1N)[O]C(=O)c1nccnc1N | – | – | – | 1.57 µM | 1.49 µM | 2.12 µM | 2.95 µM | 0.327 µM | 2.68 µM | GI50 [4]: 0.388 µM; GI50 [6]: 0.869 µM; GI50 [7]: 1.59 µM; GI50 [8]: 0.124 µM; GI50 [9]: 1.38 µM
35 | CC(=O)OC(C)(C)N=Nc1ccc(Br)cc1 | > 100 µM | – | – | – | – | – | – | – | – | –
36 | CC1(C)CC2C=C(C=O)C3(C=O)CC3(C)C2C1 (centres undefined) | 9.36 µM | – | – | – | – | – | – | – | – | –
37 | C[C@H]1CC[C@@H]2[C@@H](C)[C@H]3[C@H](C[C@H]4[C@@H]5CC=C6C[C@@H](O)CC[C@]6(C)[C@H]5C[C@H](O)[C@]34C)N2C1 | > 100 µM | – | – | – | – | – | – | – | – | –
38 | COC(=O)C1CCC(Nc2cccc(C(F)(F)F)c2)=N1 (centres undefined) | – | > 100 µM | > 100 µM | > 100 µM | – | > 100 µM | – | > 100 µM | > 100 µM | –
39 | CC1=C(/C=C/C(C)=C/C=C/C(C)=C/C(=O)Nc2ccc(O)cc2)C(C)(C)CCC1 | 8.35 µM | – | – | – | – | – | – | – | – | –
40 | O=C(O)C1c2ccccc2C(C(=O)O)c2ccccc21 (centres undefined) | – | > 100 µM | – | > 100 µM | > 100 µM | > 100 µM | > 100 µM | > 100 µM | – | –
